Details: Liquid, Vibrating wire viscometry

Cc1ccccc1C [1,2-dimethylbenzene]
Details	viscosity [mPa·s]
273.48 K, 100 kPa	1.102
273.48 K, 1000 kPa	1.113
273.48 K, 5000 kPa	1.154
273.48 K, 10000 kPa	1.209
273.48 K, 15000 kPa	1.264
273.48 K, 20000 kPa	1.319
273.48 K, 25000 kPa	1.378
273.48 K, 30000 kPa	1.436
283.21 K, 10000 kPa	1.031
283.21 K, 15000 kPa	1.075
283.21 K, 20000 kPa	1.121
283.21 K, 25000 kPa	1.169
283.21 K, 30000 kPa	1.216
283.22 K, 100 kPa	0.9464
283.22 K, 1000 kPa	0.9529
283.22 K, 5000 kPa	0.9859
293.04 K, 100 kPa	0.8196
293.04 K, 1000 kPa	0.8252
293.04 K, 5000 kPa	0.8535
293.04 K, 10000 kPa	0.8901
293.05 K, 15000 kPa	0.9269
293.05 K, 20000 kPa	0.9685
293.05 K, 25000 kPa	1.006
293.06 K, 30000 kPa	1.048
302.87 K, 100 kPa	0.7178
302.87 K, 1000 kPa	0.7228
302.87 K, 20000 kPa	0.8457
302.87 K, 25000 kPa	0.879
302.87 K, 30000 kPa	0.9126
302.88 K, 5000 kPa	0.7489
302.88 K, 10000 kPa	0.7794
302.88 K, 15000 kPa	0.8128
312.66 K, 100 kPa	0.6371
312.66 K, 10000 kPa	0.6901
312.66 K, 20000 kPa	0.7486
312.66 K, 25000 kPa	0.7781
312.66 K, 30000 kPa	0.8077
312.67 K, 1000 kPa	0.6414
312.67 K, 5000 kPa	0.6635
312.67 K, 15000 kPa	0.7185
321.85 K, 100 kPa	0.5744
321.85 K, 1000 kPa	0.5794
321.85 K, 10000 kPa	0.6241
321.85 K, 15000 kPa	0.6489
321.85 K, 30000 kPa	0.7248
321.86 K, 5000 kPa	0.5991
321.86 K, 20000 kPa	0.6748
321.86 K, 25000 kPa	0.6987
332.47 K, 100 kPa	0.515
332.47 K, 1000 kPa	0.5176
332.48 K, 5000 kPa	0.5347
332.48 K, 10000 kPa	0.5575
332.48 K, 15000 kPa	0.5798
332.48 K, 20000 kPa	0.6029
332.48 K, 25000 kPa	0.6273
332.48 K, 30000 kPa	0.6504
343.06 K, 100 kPa	0.4586
343.07 K, 1000 kPa	0.4624
343.07 K, 5000 kPa	0.4782
343.07 K, 10000 kPa	0.499
343.08 K, 15000 kPa	0.5195
343.08 K, 25000 kPa	0.5603
343.08 K, 30000 kPa	0.5817
343.09 K, 20000 kPa	0.5401
353.01 K, 30000 kPa	0.5312
353.02 K, 10000 kPa	0.4549
353.02 K, 15000 kPa	0.4725
353.02 K, 20000 kPa	0.4922
353.02 K, 25000 kPa	0.5113
353.03 K, 5000 kPa	0.4342
353.04 K, 100 kPa	0.4177
353.04 K, 1000 kPa	0.4196
362.85 K, 100 kPa	0.3838
362.85 K, 1000 kPa	0.3862
362.85 K, 5000 kPa	0.4001
362.85 K, 10000 kPa	0.4169
362.86 K, 15000 kPa	0.434
362.86 K, 20000 kPa	0.4506
362.87 K, 25000 kPa	0.469
362.87 K, 30000 kPa	0.4842
372.83 K, 100 kPa	0.3528
372.84 K, 1000 kPa	0.3556
372.84 K, 5000 kPa	0.3683
372.85 K, 10000 kPa	0.3831
372.85 K, 25000 kPa	0.4324
372.86 K, 15000 kPa	0.4015
372.86 K, 20000 kPa	0.4156
372.86 K, 30000 kPa	0.4477

Source: the NIST ThermoML archive (doi:10.1016/j.jct.2015.11.027)
